Test results as given in patent US20240415921A1, “METHODS OF TREATING CANCER BY TARGETING TUMOR-ASSOCIATED MACROPHAGES” (ENDOCYTE, INC., priority 2014, published 2024).

System: 4T1 TAMs
Test: Activity against 4T1 TAMs in-vivo (FACS of harvested tumors)
Parameters: species or system nude rats
Settings: single i.v. dose (Example 1 100 nmol/kg; EC0923 alone 50 μmol/kg), tumors harvested four days later
Excerpt: EXAMPLE 4. Example 1 activity against 4T1 TAMs in-vivo. As a proof-of-concept study, female Foxn1^nu nude rats (Harlan, Inc., Indianapolis, IN) on a folate-deficient diet are subcutaneously implanted with 1×10^6 4T1 tumor cells in the left and right mammary regions (2 tumors per animal). When the tumors reach about 900-1000 mm^3, the animals are intravenously dosed with (i) PBS (n=1), (ii) 100 nmol/kg of the folic acid-releasable linker-drug conjugate, such as Example1 (n=1), (iii) 100 nmol/kg of Example1 plus 50 μmol/kg of EC0923 (n=1), or (iv) 50 μmol/kg of EC0923 (n=1). Four days later, the tumors are harvested, enzymatically digested, and subjected to FACS analysis. The tumor cell suspensions are stained for macrophage markers (CD163 and/or CD11b), cell viability (propidium iodide), and late and early apoptosis (Annexin V).
EXAMPLE 13. Preparation of 4T1 xenograft tumors from nude rats and MDA-MB-231 tumors isolated from nude mice and A549 tumors isolated from nude mice. Each tumor is minced and placed into 20 mL of RPMI1640 (serum free) containing 0.5 mg/mL Collagenase IV, 0.05 mg/mL hyaluronidase, and 0.1 mg/mL DNaseI and placed in a shaker at 200 rpm for 1 hr at 37° C. […]

## Nc1nc2ncc(CNc3ccc(C(=O)N[C@@H](CCC(=O)N[C@H](CC(=O)O)C(=O)N[C@H](CC(=O)O)C(=O)O)C(=O)O)cc3)nc2c(=O)[nH]1 [EC0923, pteroyl-[…]Glu-D-Asp-D-Asp]
  viable CD163(+) CD11b(+) TAM population in 4T1 tumors: does not have any effect
